Measured values taken from patent US8722707B1, “Compositions and methods for inhibition of smooth muscle cell proliferation and neointimal hyperplasia” (The Ohio State University, priority 2009, dated 2014).

What was measured:
[1] = system: human aortic endothelial cells; experiment: Inhibitory effect on human aortic endothelial cells; format: cell-based; settings: 10 μM
PTEN [2] = experiment: PTEN expression in rat carotid artery tissue after balloon injury; format: in vivo, Sprague-Dawley rats; settings: subcutaneous, 14 days
Description: (§1) Western blotting was performed as reported previously (Selvendiran K, Tong L, Vishwanath S, Bratasz A, Trigg N J, Kutala V K, Hideg K, and Kuppusamy P, EF 24 induces G 2/M arrest and apoptosis in cisplatin-resistant human ovarian cancer cells by increasing PTEN expression. J Biol Chem 282::28609-28618).
(§2) All experiments involving animals were performed in accordance with the relevant guidelines and regulations approved by the Internal Animal Care and Use Committee of The Ohio State University. Sprague-Dawley rats weighing 300 to 350 g were anesthetized by an intraperitoneal injection of ketamine (6 0 mg/kg) and xylazine (5 mg/kg). Under a stereomicroscope, the right common, external, and internal carotid arteries were exposed by a longitudinal midline cervical incision. Blood flow was temporarily interrupted by ligation of the common and internal carotid arteries using vessel clips. The external carotid artery was ligated permanently using 6-0 silk suture. […]
(§3) Immediately after completion of the carotid injury procedure, subcutaneous administration of HO-3867 (in 10% DMSO+40% polyethylene glycol+50% PBS) commenced at a dose of 5 or 10 mg/kg/day, and continued for 2 weeks (n=5 for each group). […] The intimal and medial areas were measured using MetaMorph software (Molecular Devices, Sunnyvale, Calif.), and intimal/medial ratios were calculated. […]

[3] = system: p38 mitogen-activated protein kinase; experiment: Activation of p38 mitogen-activated protein kinase in cultured SMCs; format: cell-based, human; settings: data not shown
From the text: (§4) We next wanted to check the involvement of reactive oxygen species-mediated p38 mitogen-activated protein kinase pathways in the activation of ATF-2.

human aortic SMCs [4] = experiment: Serum-stimulated proliferation of human aortic SMCs (viable cell count); format: cell-based
Description: Human aortic SMCs were obtained at passage 3 (AoSMC; Lonza Walkersville, Inc., Walkersville, Md.). The cells were maintained in culture in a humidified incubator at 37 C and 5% CO2 in smooth muscle cell growth medium (SmG M-2). Cells were trypsinized and passaged at 95% confluence. Studies were performed using cells at passages 4 to 6 at 6 0 to 90% confluence. Cells were counted using an automated cell counter (NucleoCounter; New Brunswick Scientific, Edison, N.J.).
We first studied the effect of HO-3867 on serum-stimulated proliferation of human aortic SMCs, in vitro (FIG. 1A).
(§5) The cells were then treated with 0, 0.5, 1, 5, and 10 μM HO-3867 for 24 h, after which the cells were trypsinized and counted for viability. […] We observed inhibition of SMC proliferation by both phase-contrast microscopy (FIG. 1B) and by nuclear staining with DAPI (FIG. 1C). Next, we determined whether the growth inhibition of SMC by HO-3867 was due to cell cycle arrest or apoptosis. SMCs were treated with 10 μM HO-3867 for 12 or 24 h. The cells were then fixed, and cell cycle populations were determined by flow cytometry.

PTEN [5] = experiment: PTEN expression and activation in SMCs (Western blot, immunofluorescence, RT-PCR); format: cell-based, human; design: PTEN mRNA expression: dose or concentration left out as unconfirmed
Description: as §1
(§6) SMCs, grown on Lab-Tek Chamber slides (Nalge Nunc International, Rochester, N.Y.), were fixed with 4% paraformaldehyde for 10 min at room temperature and then washed in PBS containing 0.05% Tween 20. Nonspecific reactions were blocked with Protein B lock Serum-Free (DAKO, Kyoto, Japan) and then incubated with an anti-PTEN, MMP-2, or MMP-9 antibody at 4 C overnight. After washing in PBS containing 0.05% Tween 20, the specimens were treated with Alexa Fluor goat anti-mouse IgG (H+L) antibody (Invitrogen, Carlsbad, Calif.) for 45 min at room temperature and then counterstained by propidium iodide after digestion of RNA by RNase (Invitrogen). The immunostaining of PTEN, MMP-2, and MMP-9 proteins was visualized using a fluorescence microscope (Nikon, Tokyo, Japan).
Total RNA was isolated from SMCs using the RNeasy system according to the instructions of the manufacturer. RNA quantification was done using spectrophotometry. Reverse transcription (RT)-PCR analysis for the mRNA expressions in PTEN and the internal control GAPDH was carried out using a GeneAmp PCR System Veriti thermo cycler (Applied Biosystems, Foster City, Calif.) under the following conditions: initial denaturation at 94 C for 2 min, 35 cycles of amplification (denaturation at 94 C for 30 s, annealing at 50 C for 30 s, and extension at 72 C for 30 s), and extension at 72 C for 5 min. The sequences (5′-3′) for the primer pairs of PTEN and GAPDH, respectively, were as follows:
This was further confirmed by immunofluorescence microscopy (FIG. 2B).
To confirm whether the increase in the expression of PTEN was due to its transcriptional induction by HO-3867, we performed RT-PCR analysis for PTEN mRNA.

ATF-2 = ATF-2 activation in SMCs (Western blot); format: cell-based, human; design: dose or concentration left out as unconfirmed; settings: HO-3867 (FIG. 3A legend)
Description: as §1, §4

MMP-2 [6] = experiment: MMP-2 activity by gelatin zymography in rat carotid artery; format: in vivo, Sprague-Dawley rats; settings: treatment group compared with injured/untreated group
Description: (§7) MMP-2 and MMP-9 was determined by gelatin zymography as reported previously (Cho and Reidy, 2002). Matrix metalloproteinase-9 is necessary for the regulation of smooth muscle cell replication and migration after arterial injury. Circ Res 91:845-851).
as §2, §3

[7] = system: PTEN cDNA-transfected SMCs; experiment: PTEN cDNA-transfected SMCs treated with HO-3867 (survival, cell cycle, cleaved caspase-3); format: cell-based, human
Description: The PTEN siRNA and cDNA transfection experiments were performed as reported (Selvendiran et al., 2007, supra).
We investigated whether the PTEN overexpression was responsible for the inhibition of cell survival and proliferation in SMCs. We used wild-type PTEN cDNA transfection into SMCs for these experiments. Twenty-four hours after transfection, the cells were treated with 10 μM HO-3867 for 12 h.

rat carotid artery = experiment: Neointimal formation after balloon injury in rat carotid artery (morphometric analysis); format: in vivo, Sprague-Dawley rats; settings: subcutaneous
Description: (§8) All experiments involving animals were performed in accordance with the relevant guidelines and regulations approved by the Internal Animal Care and Use Committee of The Ohio State University. Sprague-Dawley rats weighing 300 to 350 g were anesthetized by an intraperitoneal injection of ketamine (6 0 mg/kg) and xylazine (5 mg/kg). Under a stereomicroscope, the right common, external, and internal carotid arteries were exposed by a longitudinal midline cervical incision. Blood flow was temporarily interrupted by ligation of the common and internal carotid arteries using vessel clips. The external carotid artery was ligated permanently using 6-0 silk suture. A 2F Fogarty arterial embolectomy catheter (Edwards Lifesciences, Irvine, Calif.) was introduced through an arteriotomy in the external carotid artery just below the ligature and advanced to the common carotid artery. To produce the injury, the balloon was inflated with saline and passed six times with rotation from just under the proximal edge of the omohyoid muscle to the carotid bifurcation. The balloon was then deflated, and the catheter was withdrawn. Blood flow was restored by removing the clips on the common and internal carotid arteries. After visual inspection to ascertain adequate pulsation of the common carotid artery, the surgical incision was closed, and the rats were allowed to recover from anesthesia in a humidified and warmed chamber for 2 to 4 h.
as §3, with “group). The control group received the vehicle only. After treatment for 14 days, the animals were sacrificed with an overdose of pentobarbital (200 mg/kg), and the carotid arteries were collected for morphometric analysis and isolation of proteins for analysis by Western blotting.” for “group).”

[8] = system: MMP-2, MMP-9, NF-κB p65, pERK1/2, pAkt, cyclin D1, p53, cleaved caspase-3; experiment: Western blot of regulatory proteins in rat carotid artery tissue after balloon injury; format: in vivo, Sprague-Dawley rats
Description: as §1
as §8, with “After visual inspection to ascertain adequate pulsation of the common carotid artery, the surgical incision was closed, and the rats were allowed to recover from anesthesia in a humidified and warmed chamber for 2 to 4 h.” left out
Immediately after completion of the carotid injury procedure, subcutaneous administration of HO-3867 (in 10% DMSO+40% polyethylene glycol+50% PBS) commenced at a dose of 5 or 10 mg/kg/day, and continued for 2 weeks (n=5 for each group). […] The intimal and medial areas were measured using MetaMorph software (Molecular Devices, Sunnyvale, Calif.), and intimal/medial ratios were calculated.

MMP-9 [9] = experiment: MMP-9 activity by gelatin zymography in rat carotid artery; format: in vivo, Sprague-Dawley rats; settings: treatment group compared with injured/untreated group
Description: as §7, §2, §3

[10] = system: p53, p21, ERK1/2, cyclin D1, Akt; experiment: Cell cycle regulatory proteins in SMCs (Western blot); format: cell-based, human; settings: SMCs treated with HO-3867
Description: as §1

FAK = FAK expression in SMCs (Western blot); format: cell-based, human; settings: 10 μM, 24-h exposure
Description: as §1

human aortic SMCs [11] = experiment: Cell cycle analysis by flow cytometry in SMCs; format: cell-based; settings: 10 μM for 12 or 24 h
Description: Flow cytometry was performed (Selvendiran K, Bratasz A, Tong L, Ignarro L J, and Kuppusamy P, NCX-4016, a nitro-derivative of aspirin, inhibits EGFR and STAT3 signaling and modulates Bcl-2 proteins in cisplatin-resistant human ovarian cancer cells and xenografts. Cell Cycle 7 :8188).
as §5

MMP-9 [12] = experiment: MMP-9 expression in SMCs (Western blot, immunofluorescence); format: cell-based, human; settings: 10 μM for 12 or 24 h
Description: as §1, §6
(§9) We investigated whether the HO-3867-induced PTEN expression could suppresses MMP expression in SMCs.

NF-κB p65 = NF-κB p65 expression in SMCs (Western blot); format: cell-based, human; settings: 10 μM, 24-h exposure
Description: as §1
In addition, HO-3867 inhibited NF-κB p65, one of the main regulator mechanisms in the inflammatory activation of MMP-9 in SMCs (FIG. 5A).

MMP-2 [13] = experiment: MMP-2 expression in SMCs (Western blot, immunofluorescence); format: cell-based, human; settings: 10 μM for 12 or 24 h
Description: as §1, §6, §9

reactive oxygen species = experiment: Production of reactive oxygen species in cultured SMCs; format: cell-based, human; settings: data not shown
From the text: as §4

[14] = 10 μM, as early as 1 h of treatment, immunoblot
[15] = Western blot of carotid tissue, 14 days treatment

Structure (SMILES): CC1(C)C=C(CN2C/C(=C\c3ccc(F)cc3)C(=O)/C(=C/c3ccc(F)cc3)C2)C(C)(C)N1O [HO-3867, 1-[(1-Oxyl-2,2,5,5-tetramethyl-2,5-dihydro-1H-pyrrol-3-yl)methyl]-(3E,5E)-3,5-Bis(4-fluorobenzylidene)piperidin-4-one]
- inhibitory effect on human aortic endothelial cells [1]: did not have any significant inhibitory effect
- PTEN level in carotid artery tissue (PTEN [2]; 5 mg/kg): restored PTEN to the control level
- PTEN level in carotid artery tissue (PTEN [2]; 10 mg/kg): increased the PTEN level significantly above control level
- activation of p38 mitogen-activated protein kinase [3]: did not detect
- viable cell count (human aortic SMCs [4]; 0, 0.5, 1, 5, and 10 μM for 24 h, FBS-stimulated SMCs): decreased in a concentration-dependent manner
- EC50 (human aortic SMCs [4]; 10% FBS-stimulated human SMCs, HO-3867 for 24 h, viable cell count): 3.82 µM
- cell-counts (human aortic SMCs [4]; at 1, 5, and 10 μM, 24 h, p<0.05 versus untreated cells): Significantly reduced cell-counts
- PTEN activation (pPTEN) (PTEN [5]; [14]): induced
- PTEN expression (PTEN [5]; [14]): induced
- PTEN mRNA expression (PTEN [5]; RT-PCR, in 3 h): increase
- time to ATF-2 activation (ATF-2): ≤ 15 min
- MMP-2 activity (MMP-2 [6]): significantly down-regulated
- survival of PTEN cDNA-transfected cells ([7]; 10 μM HO-3867, compared with untreated or nontransfected cells): even more significant reduction
- apoptotic population (sub-G1), PTEN cDNA overexpression plus HO-3867 ([7]; 10 μM, 12 h, compared with PTEN cDNA- or HO-3867-alone-treated groups): significantly increased
- cleaved caspase-3 levels, PTEN cDNA+HO-3867-treated cells ([7]; 10 μM, 12 h, compared with untreated or nontransfected cells): substantial increase
- inhibition of neointimal formation (rat carotid artery; 5 mg/kg, 14 days, data not shown): did not show any significant inhibition
- intima/media ratio (rat carotid artery; daily for 14 days after balloon injury, versus injured/untreated): significantly reduced
- intimal thickening (rat carotid artery; daily for 14 days after balloon injury, 10 mg/kg (FIG. 7A)): significantly inhibited
- apoptosis in vivo (activation of cleaved caspase-3) ([8]; 10-mg/kg dose): induced apoptosis in vivo
- MMP-2, MMP-9, NF-κB p65, pERK1/2, pAkt, and cyclin D1 in tissue [8, 15]: down-regulation
- p53 and cleaved caspase-3 in tissue [8, 15]: up-regulation
- MMP-9 activity (MMP-9 [9]): significantly down-regulated
- Akt level [10]: without any change
- ERK1/2 and cyclin D1 [10]: down-regulation
- p53 and p21 [10]: induction
- expression of FAK (FAK): down-regulated
- sub-G1 population (apoptosis) (human aortic SMCs [11]): no effect
- G1 cell cycle arrest (human aortic SMCs [11]; time-dependent): induced G1 cell cycle arrest
- MMP-9 expression (MMP-9 [12]): down-regulated
- NF-κB p65 (NF-κB p65): inhibited
- MMP-2 expression (MMP-2 [13]): down-regulated
- production of reactive oxygen species (reactive oxygen species): did not detect
